Assay results as given in ChEMBL document CHEMBL1159326, “Three new homoisoflavanone glycosides from the bulbs of Ornithogalum caudatum” (J Nat Prod, 2002).
The source made the active and inactive calls. The calls are words filed in the database; no cut-off is given here.

Experiments:
P388 = assay: Antitumor activity in mouse P388 cells; assay type: functional, cell-based
A549 = assay: Antitumor activity in human A549 cells; assay type: functional, cell-based

Row | Compound | Activity (P388) | Activity (A549)
1 | COc1ccc(C[C@]2(O)COc3cc(OC)cc(O[C@@H]4O[C@H](CO[C@@H]5O[C@@H](C)[C@H](O)[C@@H](O)[C@H]5O)[C@@H](O)[C@H](O)[C@H]4O)c3C2=O)cc1 | inactive | inactive
2 | COc1ccc(C[C@]2(O)COc3cc(OC)cc(O[C@@H]4O[C@H](CO)[C@@H](O)[C@H](O)[C@H]4O)c3C2=O)cc1 | inactive | inactive
3 | COc1ccc(C[C@]2(O)COc3cc(OC)cc(O[C@@H]4O[C@H](CO)[C@@H](O)[C@H](O)[C@H]4O[C@@H]4O[C@@H](C)[C@H](O)[C@@H](O)[C@H]4O)c3C2=O)cc1 | inactive | inactive
